Seven compounds from ChEMBL document CHEMBL5120950, “Discovery and Mechanistic Study of Mycobacterium tuberculosis PafA Inhibitors” (J Med Chem, 2022) can be followed below.

For assay [1], the target named is T1, Pup--protein ligase (Mycobacterium tuberculosis) (UniProt P9WNU7).
T1 sequence (whole entry): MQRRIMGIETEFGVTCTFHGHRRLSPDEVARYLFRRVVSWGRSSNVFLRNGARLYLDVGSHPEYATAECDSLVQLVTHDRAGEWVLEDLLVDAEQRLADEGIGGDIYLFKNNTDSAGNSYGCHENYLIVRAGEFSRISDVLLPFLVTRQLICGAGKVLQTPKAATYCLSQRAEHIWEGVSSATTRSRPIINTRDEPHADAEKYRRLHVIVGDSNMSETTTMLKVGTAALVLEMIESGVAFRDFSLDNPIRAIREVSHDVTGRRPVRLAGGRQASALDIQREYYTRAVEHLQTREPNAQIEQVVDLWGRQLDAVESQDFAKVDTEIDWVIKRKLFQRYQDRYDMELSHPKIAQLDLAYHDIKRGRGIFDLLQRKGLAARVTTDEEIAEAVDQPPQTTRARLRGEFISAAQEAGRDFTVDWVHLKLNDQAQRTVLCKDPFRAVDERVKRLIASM
Nature of the assay: Inhibition of Mycobacterium tuberculosis PafA expressed in Escherichia coli BL-21(DE3) assessed as inhibition of pup-ylation using Mtb PanB substrate at 20 uM by SDS-PAGE analysis.

Assay [2] concerns the target T2, Pup--protein ligase (Corynebacterium glutamicum) (UniProt Q8NQE1).
T2 sequence (whole entry): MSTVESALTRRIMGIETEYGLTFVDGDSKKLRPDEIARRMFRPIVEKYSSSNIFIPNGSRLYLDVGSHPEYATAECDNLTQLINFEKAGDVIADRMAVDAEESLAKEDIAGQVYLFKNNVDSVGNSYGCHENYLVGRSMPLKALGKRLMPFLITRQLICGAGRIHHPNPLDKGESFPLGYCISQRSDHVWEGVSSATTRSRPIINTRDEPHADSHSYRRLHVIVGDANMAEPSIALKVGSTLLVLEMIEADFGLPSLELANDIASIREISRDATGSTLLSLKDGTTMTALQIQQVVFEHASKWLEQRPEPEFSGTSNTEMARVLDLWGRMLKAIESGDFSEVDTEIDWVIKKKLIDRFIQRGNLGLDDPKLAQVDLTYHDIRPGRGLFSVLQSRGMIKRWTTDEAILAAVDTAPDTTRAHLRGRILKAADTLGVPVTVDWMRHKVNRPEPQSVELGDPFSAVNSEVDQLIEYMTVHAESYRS
Nature of the assay: Inhibition of Corynebacterium glutamicum PafA expressed in Escherichia coli BL-21(DE3) assessed as inhibition of pup-ylation using Mtb PanB substrate at 20 uM by SDS-PAGE analysis.

Assay [3] deals with T3, Pup--protein ligase (Mycobacterium tuberculosis, UniProt P9WNU7).
T3 sequence (P9WNU7 whole entry): T1 sequence (whole entry)
Description: Inhibition of Mycobacterium tuberculosis PafA expressed in Escherichia coli BL-21(DE3) assessed as inhibition of pup-ylation using Mtb PanB substrate by SDS-PAGE analysis.

Assay [4] concerns the target T1, Pup--protein ligase (Mycobacterium tuberculosis). Description: Binding affinity to Mycobacterium tuberculosis PafA expressed in Escherichia coli BL-21(DE3) assessed as increase in thermal stability at 40 uM incubated for 15 mins at 25 degC followed by incubated at 52 to 72 degC for 5 mins by CESTA analysis.
The test system of assay [5] is Mycobacterium tuberculosis. Nature of the assay: Antimycobacterial activity against Mycobacterium tuberculosis H37Ra assessed as inhibition of growth measured after 7 days by microplate reader. Particulars: 168 h, time 7 day. In kind it is functional.
The target of assay [6] is T1, Pup--protein ligase (Mycobacterium tuberculosis). Description: Inhibition of Mycobacterium tuberculosis PafA expressed in Escherichia coli BL-21(DE3) assessed as inhibition of pup-ylation using Mtb InhA substrate at 20 uM by SDS-PAGE analysis.
Assay [7] has the same target. Description: Inhibition of Mycobacterium tuberculosis PafA expressed in Escherichia coli BL-21(DE3) assessed as inhibition of pup-ylation using Mtb KasA substrate at 20 uM by SDS-PAGE analysis.
For assay [8] the target is unchanged. Nature of the assay: Inhibition of Mycobacterium tuberculosis PafA expressed in Escherichia coli BL-21(DE3) assessed as inhibition of pup-ylation using Mtb PknB substrate at 20 uM by SDS-PAGE analysis.
The target is the same in assay [9]. Nature of the assay: Inhibition of Mycobacterium tuberculosis PafA expressed in Escherichia coli BL-21(DE3) assessed as inhibition of pup-ylation using Mtb DHFR substrate at 20 uM by SDS-PAGE analysis.
Assay [10] shares this target. Description: Binding affinity to Mycobacterium tuberculosis PafA expressed in Escherichia coli BL-21(DE3) assessed as increase in thermal stability by measuring change in melting temperature in at 50 uM by CESTA analysis.
For assay [11] the target is unchanged. Nature of the assay: Activation of Mycobacterium tuberculosis PafA expressed in Escherichia coli BL-21(DE3) assessed as pup-ylation using Mtb PanB substrate at 20 uM by SDS-PAGE analysis. Particulars: filed as activator.
Assay [12] has the same target. Description: Activation of Mycobacterium tuberculosis PafA expressed in Escherichia coli BL-21(DE3) assessed as pup-ylation using Mtb InhA substrate at 20 uM by SDS-PAGE analysis. The settings on record: filed as activator.
Assay [13] has the same target. Nature of the assay: Activation of Mycobacterium tuberculosis PafA expressed in Escherichia coli BL-21(DE3) assessed as pup-ylation using Mtb PknB substrate at 20 uM by SDS-PAGE analysis. The settings on record: filed as activator.
For assay [14] the target is unchanged. Description: Activation of Mycobacterium tuberculosis PafA expressed in Escherichia coli BL-21(DE3) assessed as pup-ylation using Mtb KasA substrate at 20 uM by SDS-PAGE analysis. Particulars: filed as activator.
The target is the same in assay [15]. Description: Activation of Mycobacterium tuberculosis PafA expressed in Escherichia coli BL-21(DE3) assessed as pup-ylation using Mtb DHFR substrate at 20 uM by SDS-PAGE analysis. The settings on record: filed as activator.
The target in assay [16] is T4, Pup--protein ligase (Corynebacterium glutamicum, UniProt Q8NQE1).
T4 sequence (Q8NQE1 whole entry): T2 sequence (whole entry)
Nature of the assay: Activation of Corynebacterium glutamicum PafA expressed in Escherichia coli BL-21(DE3) assessed as pup-ylation using Mtb PanB substrate by SDS-PAGE analysis.

The target of assay [17] is T4, Pup--protein ligase. Description: Activation of Corynebacterium glutamicum PafA expressed in Escherichia coli BL-21(DE3) assessed as pup-ylation using Mtb KasA substrate by SDS-PAGE analysis.

Values after ≈ are worked out from the molar mass of the structure shown. Active and inactive are the calls of the source. No cut-off for these calls is given here.

In general, IC50 refers to the concentration needed to halve the response being measured. For orientation: MIC90 means the lowest concentration that inhibits either 90% of growth or 90% of the strains tested, depending on the study. For orientation: ΔTm means the change in melting temperature against a reference sample. As for `O=C(O)/C=C/c1ccc(-c2ccc(O)c(C34CC5CC(CC(C5)C3)C4)c2)cc1` [ADAROTENE], the inhibition entry in assay [1], in assay [2], in assay [6], in assay [7], in assay [8] and in [9] was “Active” throughout. Further, in assay [3], the IC50 worked out at 17.9 µM. For the same compound, the outcome in [4] was Active. Also, the MIC90 in [5] came to 164 µM (≈ 61.4 µg/mL). Besides, the ΔTm in assay [10] stood at 2.5 °C.
As to `Oc1ccc(Cl)cc1Sc1cc(Cl)cc(Cl)c1`, in assay [1], the inhibition entry was “Active”.
`Oc1ccccc1Sc1cc(Cl)cc(Cl)c1`: the inhibition entry in assay [1] was “Active”.
Consider `Oc1c(Cl)cc(Cl)cc1Sc1cc(Cl)cc(Cl)c1O` [BITHIONOL], for which, in assay [1], the inhibition result is “Active”. In [3], the IC50 is 15.9 µM. The MIC90 in assay [5] came out at 89.9 µM (≈ 32 µg/mL).
Regarding `COCC[n+]1c2c(n(Cc3cnccn3)c1C)C(=O)c1ccccc1C2=O`, the outcome in [11], in [12], in assay [13], in assay [14] and in assay [15] was Active.
For orientation: EC50 means the concentration that produces a half-maximal response. Regarding `COCCn1c2c([n+](Cc3cnccn3)c1C)C(=O)c1ccccc1C2=O` [SEPANTRONIUM], the EC50 came out at 1700 nM in assay [16] and 2000 nM in assay [17].
As for `Oc1ccccc1Sc1cc(Cl)cc(Cl)c1Cl`, the inhibition result in [1] was “Active”.
